Assay: Stability in mouse plasma
Format: in vitro ADME
Conditions: 60 min incubation at 37 °C, 1 μM
Description: Working solutions of the test compounds (baicalein, enalapril, and compounds 1–7) prepared in 50 vol% aqueous MeOH at 40 μM were diluted in mouse plasma in triplicate to a final concentration of 1 μM. The mixtures were then incubated at 37 °C in a shaking water bath. A 50 μL aliquot was removed at 0 and 60 min from each incubation mixture followed by immediate mixing with 150 μL ice-cold MeOH containing 1 μg/mL glipizide as the internal standard (IS). The resulting mixtures, following a 5-min vortexing and sonication, were then centrifuged at 3000 rpm for 30 min at 4 °C. The supernatant was analyzed by Agilent 6460 QQQ LC−MS/MS system in a positive multiple reaction monitoring (MRM) mode. Gradient elution was conducted on an Agilent Eclipse Plus C18 column (100 × 2.1 mm, 3.5 µm) at 40 °C with 0.1 vol% formic acid in deionized water and 0.1 vol% formic acid in acetonitrile running at 0.45 mL/min. MRM transitions of the analytes were set as follows: baicalein: m/z 271→123, enalapril: m/z 377→234, 1: m/z 428→271, 2: m/z 414→271, 3: m/z 428→271, 4: m/z 416→271, 5: m/z 462→271, 6: m/z 386→271, 7: m/z 372→271, and glipizide: m/z 446→321. The analytical data were analyzed using Agilent MassHunter Quantitative Analysis Software (version B.05.00). Peak area ratios of the analytes vs. IS on the MRM chromatograms were used to calculate % remaining at 60 min.

% remaining in mouse plasma: degraded
Structure (SMILES): CCOC(=O)[C@H](CCc1ccccc1)N[C@@H](C)C(=O)N1CCC[C@H]1C(=O)O [Enalapril, enalapril]

Source: paper PMC8472512, “Synthesis and Biochemical Evaluation of Baicalein Prodrugs” (Pharmaceutics, 2021)
